Experimental data from patent US8916577B2, “Tricyclic derivatives, process for their preparation and their use as kinase inhibitors” (Nerviano Medical Sciences S.R.L., priority 2011, dated 2014).
Structures can show the parent of a compound that is named as a salt.

Columns and labels:
[1] = target: MPS1 (Homo sapiens (Human), UniProt P33981); test: Biochemical assay for inhibitors of MPS1 kinase activity (33P-ATP trans-phosphorylation, Dowex); settings: 5 nM MPS1, 15 microM ATP, P38-β-tide 200 microM
From the text: Cloning, Expression and Purification of Recombinant MPS1 Full Length Protein.
MPS1 full length (corresponding to residues 2-857 of the full length sequence, see Swiss-Prot accession number P33981) was PCR amplified from the full-length human MPS1 gene present in house as clone pGEX4t_MPS1.
Baculoviruses were generated by cotransfecting Sf9 insect cells with the expression vector and the viral DNA using the BaculoGold® transfection kit (Pharmingen). Viral supernatant was recovered after 5 days and subjected to 3 rounds of amplification to increase viral titer. Recombinant protein was produced by infecting High5 insect cells. After 72 hours of infection at 21° C., cells were recovered, pelletted and freezed at −80° C. For purification of recombinant protein, pellet was thawed, resuspended in lysis buffer (PBS, NaCl 150 mM, Glycerol 10%, CHAPS 0.1%, DTT 20 mM, protease and phosphatase inhibitors) and lysed by Gaulin. Lysate was cleared by centrifugation and loaded on a GST affinity column. After extensive wash, recombinant protein was cleaved by a specific protease and eluted by incubation.
To get a fully activated enzyme, the protein was then subjected to auto-phosphorylation in presence of ATP 1 mM at 25° C. for 2 hours in kinase buffer (Hepes pH7.5 50 mM, MgCl2 2.5 mM, MnCl2 1 mM, DTT 1 mM, phosphatase inhibitors); ATP was then removed whit a desalting column.
Biochemical Assay for Inhibitors of MPS1 Kinase Activity
(§1) The inhibitory activity of putative kinase inhibitors and the potency of selected compounds were determined using a trans-phosphorylation assay.
(§2) Specific peptide or protein substrates are trans-phosphorylated by their specific ser-thr or tyr kinase in the presence of ATP traced with ^33P-γ-ATP, and in the presence of their own optimal buffer and cofactors.
(§3) At the end of the phosphorylation reaction, more than 98% unlabeled ATP and radioactive ATP is captured by an excess of the ion exchange dowex resin; the resin then settles down to the bottom of the reaction plate by gravity.
Supernatant is subsequently withdrawn and transferred into a counting plate, then evaluated by P-counting.
The buffer for MPS1 assay was composed of HEPES 50 mM, at pH 7.5, with 2.5 mM MgCl2, 1 mM MnCl2, 1 mM DTT, 3 microM Na3VO4, 2 mM P-glycerophosphate and 0.2 mg/mL BSA.
The assay was run with a final concentration MPS1 of 5 nM, in the presence of 15 microM ATP and 1.5 nM ^33P-γ-ATP; the substrate was P38-β-tide, used at 200 microM.
(§4) The test mix consisted of:
(§5) 1) 3× Enzyme mix (done in Kinase Buffer 3×), 5 microL/well
(§6) 2) 3× substrate and ATP mix (done in ddH2O), together with ^33P-γ-ATP, 5 microL/well
(§7) 3) 3× test compounds (diluted into ddH2O—3% DMSO)—5 microL/well
a) for percent inhibition studies (HTS), individual dilution plates at 1 mM are diluted at a 3× concentration (30 microM) in ddH2O (3% DMSO=final concentration) using a Beckman NX automated pipetting platform. The same instrument is used for distributing the diluted mother plates into the test plates. b) for IC50 determination (KSS platform), 100 μl of each compound at 1 mM in 100% DMSO are transferred from the original plate into the first column of another 96 well plate (A1 to G1); well H1 is left empty for the internal standard inhibitor, usually staurosporine.
An automated station for serial dilutions (Biomek FX, Beckman) is used for producing 1:3 dilutions in 100% DMSO, from line A1 to A10, and for all the seven compounds in the column. Moreover, 4-5 copies of daughter plates are prepared by reformatting 5 microL of this first set of 100% DMSO dilution plates into 384 deep well-plates: one copy of the daughter plates with the serial dilutions of test compounds will be thaw the day of the experiments, reconstituted at a 3× concentration with water and used in the IC50 determination assays. In a standard experiment, the highest concentration (3×) of all compounds is 30 microM, while the lowest one is 1.5 nM. […]

[2] = target: PIM-1 (Homo sapiens (Human), UniProt P11309); test: Biochemical assay for inhibitors of PIM-1 kinase activity (33P-ATP trans-phosphorylation, Dowex); settings: 1 nM enzyme, 200 microM ATP, Aktide 25 microM
Protocol: Biochemical Assay for Inhibitors of PIM-1 Kinase Activity
as §1, §2, §3
Supernatant is subsequently withdrawn and transferred into a counting plate, then evaluated by (3-counting.
The buffer for PIM-1 assay was composed of HEPES 50 mM, at pH 7.5, with 10 mM MgCl2, 1 mM DTT, 3 microM NaVO3, and 0.2 mg/mL BSA
Full-length human PIM-1 was expressed and purified as described in Bullock A N, et al., J. Biol. Chem. 2005, 280, 41675-82.
1.7 microM PIM1 was incubated 1 hour RT at 28° C. in the presence of 125 microM ATP
ATP concentration: 200 microM
Enzyme concentration: 1 nM
Substrate concentration Aktide (Chemical Abstract Service Registry Number 324029-01-8): 25 microM
as §4, §5, §6, §7
For IC50 determination, test compounds are received as a 1 mM solution in 100% DMSO and distributed into 96-well plates: compounds are then plated into the first column of a new 96-well plate (A1 to G1), 100 microL/well.
An automated station (Biomek FX, Beckman) is used for serial dilutions, producing 1:3 dilutions in 100% DMSO, from line A1 to A10, for all the compounds in the column. […]
Data are analyzed by an internally customized version of the “Assay Explorer” SW package, which provides sigmoidal fitting of the ten-dilution curves for IC50 determination in secondary assay/hit confirmation routines.

[3] = target: PIM-2 (Homo sapiens (Human), UniProt Q9P1W9); test: PIM-2 kinase inhibition assay: Dowex technique; type: biochemical; settings: 1.5 nM enzyme, 4 microM ATP, Aktide 5 microM
Protocol: Method for PIM-2 Kinase Inhibition Assay: Dowex Technique
The buffer for PIM-2 assay was composed of HEPES 50 mM, at pH 7.5, with 1 mM MgCl2, 1 mM DTT, 3 microM Na3VO4, and 0.2 mg/mL BSA
Full-length human PIM-2 was expressed and purified as described in Fedorov O, et al., PNAS 2007 104, 51, 20523-28.
Enzyme concentration=1.5 nM
Aktide substrate (Chemical Abstract Service Registry Number 324029-01-8)=5 microM
See above: same procedure as described for PIM-1.

Sequence of PIM-2 (Q9P1W9 whole entry): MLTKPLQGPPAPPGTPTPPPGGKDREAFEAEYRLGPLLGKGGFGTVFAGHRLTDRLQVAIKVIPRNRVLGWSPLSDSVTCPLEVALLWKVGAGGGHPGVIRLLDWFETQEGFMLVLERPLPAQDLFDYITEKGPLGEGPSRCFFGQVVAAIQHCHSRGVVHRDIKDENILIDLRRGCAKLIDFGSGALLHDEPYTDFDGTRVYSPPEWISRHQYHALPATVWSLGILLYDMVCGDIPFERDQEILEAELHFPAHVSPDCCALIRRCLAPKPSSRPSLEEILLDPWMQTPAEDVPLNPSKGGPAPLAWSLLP
Sequence of PIM-1 (P11309 whole entry): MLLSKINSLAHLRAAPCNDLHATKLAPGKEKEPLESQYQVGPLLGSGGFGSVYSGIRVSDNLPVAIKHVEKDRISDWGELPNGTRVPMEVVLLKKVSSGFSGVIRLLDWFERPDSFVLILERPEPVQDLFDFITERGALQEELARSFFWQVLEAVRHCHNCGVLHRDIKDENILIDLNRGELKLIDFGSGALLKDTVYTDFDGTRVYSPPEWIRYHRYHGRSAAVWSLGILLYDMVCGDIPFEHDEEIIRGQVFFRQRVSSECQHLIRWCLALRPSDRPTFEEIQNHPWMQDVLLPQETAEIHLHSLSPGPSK
Sequence of MPS1 (P33981 2-857): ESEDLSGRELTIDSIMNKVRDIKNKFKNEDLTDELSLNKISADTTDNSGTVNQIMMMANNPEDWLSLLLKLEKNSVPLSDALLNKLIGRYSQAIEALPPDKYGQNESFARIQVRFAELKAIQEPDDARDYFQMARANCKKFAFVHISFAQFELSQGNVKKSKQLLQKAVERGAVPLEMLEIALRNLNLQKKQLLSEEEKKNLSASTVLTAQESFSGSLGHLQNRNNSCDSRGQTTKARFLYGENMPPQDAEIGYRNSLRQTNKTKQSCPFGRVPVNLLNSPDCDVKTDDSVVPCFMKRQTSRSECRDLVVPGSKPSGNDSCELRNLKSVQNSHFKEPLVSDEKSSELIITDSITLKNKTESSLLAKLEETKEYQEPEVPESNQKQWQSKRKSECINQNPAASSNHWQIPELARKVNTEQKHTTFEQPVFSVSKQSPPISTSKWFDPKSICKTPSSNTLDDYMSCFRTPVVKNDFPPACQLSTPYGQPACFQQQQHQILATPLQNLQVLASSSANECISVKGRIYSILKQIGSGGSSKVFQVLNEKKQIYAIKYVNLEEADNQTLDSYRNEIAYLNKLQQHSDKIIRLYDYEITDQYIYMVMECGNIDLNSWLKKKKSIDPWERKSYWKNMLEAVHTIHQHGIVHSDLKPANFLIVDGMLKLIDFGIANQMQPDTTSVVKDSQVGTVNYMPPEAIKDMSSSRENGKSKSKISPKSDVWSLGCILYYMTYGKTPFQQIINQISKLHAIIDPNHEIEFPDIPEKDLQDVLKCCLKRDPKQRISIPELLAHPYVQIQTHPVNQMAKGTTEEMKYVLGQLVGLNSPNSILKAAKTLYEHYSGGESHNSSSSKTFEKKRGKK

SMILES | IC50 [1] | IC50 [2] | IC50 [3]
COc1cc(N2CCN(C)CC2)ccc1Nc1ncc2c(n1)-c1c(c(C(N)=O)nn1C)CCC2 [Compound 3, 9-{[2-methoxy-4-(4-methylpiperazin-1-yl)phenyl]amino}-1-methyl-1,4,5,6-tetrahydropyrazolo[4′,3′:6,7]cyclohepta[1,2-d]pyrimidine-3-carboxamide] | 0.194 µM | 1.32 µM | 5.91 µM
COc1cc(C(=O)NC2CCN(C)CC2)ccc1Nc1ncc2c(n1)-c1c(c(C(=O)N[C@H](CN)c3ccccc3)nn1C)CCC2 [Compound 5, N-[(1S)-2-amino-1-phenylethyl]-9-({2-methoxy-4-[(1-methylpiperidin-4-yl)carbamoyl]phenyl}amino)-1-methyl-1,4,5,6-tetrahydropyrazolo[4′,3′:6,7]cyclohepta[1,2-d]pyrimidine-3-carboxamide dihydrochloride] | 0.469 µM | 0.497 µM | 3.76 µM
CN1CCN(c2ccc(Nc3ncc4c(n3)-c3c(c(C(N)=O)nn3C)CCC4)cc2)CC1 [Compound 67, 1-methyl-9-{[4-(4-methylpiperazin-1-yl)phenyl]amino}-1,4,5,6-tetrahydropyrazolo[4′,3′:6,7]cyclohepta[1,2-d]pyrimidine-3-carboxamide trifluoroacetate] | 1.2 µM | 2.45 µM | 3.6 µM
